According to patent US7449202B1, “Compositions and methods for prostate and kidney health and disorders, an herbal preparation” (Integrated Chinese Medicine Holdings, Ltd., priority 2003, dated 2008):

Assay: case report: enlarged prostate with frequent urination
Type: in vivo, human
Settings: person, prescribed for enlarged prostate
Source text: The 9-herb composition and Incontinence. Person diagnosed with having an enlarged prostate suffered from frequent-urination problems including increased daily frequency and reduced volume. They had the urge to urinate every two hours and the amount was only a few drops. Their symptoms were attributed to old age. […] After a period of time on this regimen, their urinary frequency decreased. The person reports that they only go to the bathroom every four hours instead of every two hours during the day. They are able to urinate what they consider a normal amount of urine in a steady stream as opposed to the dribbling they experienced prior to taking the 9-herb composition. The biggest benefit they experienced, however, is sleeping through the night without having to get up and go to the bathroom. Because they are sleeping better, they have more energy throughout the day.

CC(C)(C)NC(=O)[C@H]1CC[C@H]2[C@@H]3CC[C@H]4NC(=O)C=C[C@]4(C)[C@H]3CC[C@]12C [PROSCAR]
urination problem: did not alleviate the urination problem
